Source: patent US20250066480A1, “METHODS TO ENHANCE EFFICACY OF COMBINED TARGETING OF IMMUNE CHECKPOINT AND MAPK PATHWAYS” (THE REGENTS OF THE UNIVERSITY OF CALIFORNIA, priority 2021, published 2025)

Columns and labels:
[1] = tested on: YUMM1.7ER-luc (Braf^V600E melanoma) intracranial and extracranial metastases; test: Experimental metastasis of syngeneic melanoma (intracardiac injection, BLI, survival); details: MEKi monotherapy from d0
Procedure: YUMM1.7ER melanoma cells were engineered to express firefly luciferase (YUMM1.7ER-luc). Before every IC injection, cells were selected for stable luciferase expression by blasticidin treatment, yielding cells (1 million) that emitted luciferase light units of 5e8 to 5e9 in vitro. C57BL/6 (6-8 weeks old, female), after anesthesia with vaporized isoflurane (2.0-2.5%), were injected with 1×10^6 cells/mouse into the left ventricle for intracardiac inoculation. Progression of metastatic tumor burden and treatment effects in mice were monitored in vivo and ex vivo by bioluminescent imaging (BLI). We acquired BLI on both ventral and dorsal sides twice weekly until study endpoints (total ventral or dorsal BLI signal in the range of 1e9-1e10, moribund, or death). Mice were anesthetized with vaporized isoflurane; D-luciferin (150 mg luciferin/kg, Caliper Life Sciences) dosed by intraperitoneal injections; and, 10 minutes after injections, luciferase activities were measured with IVIS Lumina II Imaging System (PerkinElmer). Image analysis was performed with Living Image 4.7.2 Version (PerkinElmer). For ex vivo BLI, mice were euthanized 10 minutes after intraperitoneal injection of D-luciferin by cervical dislocation and organs were excised and imaged ex vivo by the IVIS system. […]

[2] = tested on: intratumoral T-cell clonotypes (YUMM1.7ER metastases); test: Bulk tumor TCR-seq of tumor-involved brain and ovarian tissues; type: in vivo, mouse; details: on d3; FIG. 6B
Procedure: Total RNA was extracted from frozen tissue stored in RNALater using the QIAGEN All Prep DNA/RNA Mini Kit. RNA quality was measured using Bioanalyzer (Agilent). 710 ng-1,000 ng of RNA from ovary and brain tissues (RNA Integrity Number (RIN) score >7) was used as input to construct libraries with the QIAGEN QIAseq Immune Repertoire RNA Library Kit—T cell Receptor Panel (Qiagen). Briefly, RNA was reverse transcribed using a pool of TCR gene-specific primers against the constant region for the T cell receptor alpha, beta, gamma, and delta genes. The resulting cDNA was then ligated to an oligo containing one side of sample index and unique molecular index (UMI). […] The dual-indexed sample PCR fragment was purified and then quantified for absolute quantification of amplifiable libraries (DNA with adaptors at both ends) in triplicate by real-time qPCR using QIAGEN QIAseq Library Quant Array Kit. […] 12 μM of denatured library pool was run with QIAseq A Read1 Primer on Illumina NextSeq 500 Mid Output Kit using v2.5 chemistry for 300 cycles with an asymmetrical paired end 261/41 bp read for CDR3 region.
As reported previously (10), raw reads were submitted to the QIAGEN GeneGlobe Data Analysis Center (qiagen.com/us/shop/genes-and-pathways/data-analysis-center-overview-page/) to estimate the abundance of reads of unique CDR3 sequence and generate TCR clonotype calls. […]

NRAS^MUT melanoma = details: patients with NRAS^MUT melanoma; cited from earlier work

Compound | Delay of MBM [1] [weeks] | Fraction of overlapping TCR clones between two distinct regions of tumor-involved brain tissues [2] | Clinical benefit (median PFS, confirmed overall response, median duration of objective response) in association with prior ICT (NRAS^MUT melanoma)
CC(=O)Nc1cccc(-n2c(=O)n(C3CC3)c(=O)c3c(Nc4ccc(I)cc4F)n(C)c(=O)c(C)c32)c1 [Trametinib, trametinib] | ~1.5 | 6.17-9.77% | –
Cn1cnc2c(F)c(Nc3ccc(Br)cc3F)c(C(=O)NOCCO)cc21 [binimetinib] | – | – | greater clinical benefit
